Measured values reported in patent publication US10653691B2, “Method of promoting remyelination” (Case Western Reserve University, priority 2013, dated 2020).

How the values were obtained:
glucocorticoid receptor = test: Western blot of glucocorticoid receptor phosphorylation at Ser220 in OPCs; assay type: cell-based, mouse; conditions: OPCs treated for 1 h
Description: EpiSC-derived OPCs were seeded into poly-Lornithine/laminin coated six-well plates and allowed to attach for 2 h in DMEM/F12 without additional factors. Cells were treated with indicated inhibitors or DMSO for 1 h-SCH772984 (ChemieTek, 1 mM), SB590885 (Tocris, 10 nM), LY294002 (Tocris, 10 μM), and PD0325901 (Stemgent, 1 μM). Cells were then stimulated with drug or FGF2 (R&DSystems; 20 ng ml^−1) for 1 h and then lysed in 200 μL RIPA buffer (0.15 M NaCl, 0.05M Tris, pH=8.0, 1 mM EDTA, 1% Triton X-100, 0.1% SDS, 10% glycerol, HALT protease and phosphatase inhibitor (Thermo Fisher) added just before use) and incubated on ice for 20 min. Lysates were centrifuged at 4° C. and supernatant collected. Protein concentrations were determined by Pierce BCA protein assay kit (Thermo Fisher). […] Blots were blocked in either 5% BSA (phosphoprotein) or 5% milk (non phosphoprotein).

naive CD4+ T cells = test: Naive CD4+ T-cell assays; assay type: cell-based, mouse; conditions: Th1 or Th17 driving conditions, 4 days
Description: Naive CD4+ T cells (CD4+L-selectin^hi cells) were purified using AutoMacs Magnetic Bead cell separation technology (Miltenyi Biotech) from total lymph node cells isolated from unprimed mice with purity ranging from 98 to 99.9%. For in vitro activation, 5×10^5 naive CD4^+ T cells were activated in the presence of plate-bound anti CD3 (1 μgml^−1) plus Th1—(200 U ml^−1 interleukin-2 (IL-2), 40 U ml^−1 IL-12, 10 μgml^−1 anti-IL-4) or Th17—([…], 50 ng ml^−1 IL-6, 1 μgml^−1 anti-IFN-γ, 1 μgml^−1 anti-IL-4, 1 μgml^−1 anti-IL-2) promoting conditions. On day 4, the cultured T cells were collected and the percentage of viable cytokine positive cells assessed by flow cytometry. The cells were stained with a LIVE/DEAD Fixable Violet Dead Cell Stain Kit, for 405 nm excitation (Life Technologies), anti CD4-APC/Cy7 (clone RM4-5), anti-IFN-γ-PerCP/Cy5.5 (clone XMG1.2), and anti-IL-17-APC (clone eBio17B7) (eBioscience). Viable cells (5×10^5) were analysed per individual sample using a BD Canto II cytometer (BD Biosciences), and the data were analysed using FloJo version 9.5.2 software (Tree Star).

[1] = test system: PLP139-151 EAE mouse model; test: PLP139-151-induced relapsing remitting EAE; assay type: in vivo
From the text: Six- to seven-week-old female SJL/J mice were induced with PLP139-151 as for ex vivo recall assays. Mice were allowed to progress to disease onset at day 13 before being randomized into treatment groups (n=10 mice per group). […] This period fully encompassed the acute phase of disease onset followed by remission and the primary disease relapse. Treatments were blinded to the experimenters performing the assays.

mouse OPCs [2] = test: RNA sequencing of drug-treated OPCs; assay type: cell-based; conditions: 2, 6 or 12 h of drug treatment
Description: Cells were lysed directly in 1 ml TRIzol (Invitrogen) and stored at −80° C. Once all samples were collected, samples were thawed on ice and separated with chloroform using Phase Lock Gel tubes (5 PRIME). RNA was isolated using the miRNeasy PlusMini Kit (Qiagen) according to the manufacturer's protocol. One microgram of each sample was then poly-A selected, fragmented, and library prepared using the TruSeqRNA Sample Prep Kit (Illumina) according to the manufacturer's protocol. Samples were indexed using TruSeq adapters. One hundred base-pair paired-end reads were generated for each sample on an Illumina HiSeq 2500 instrument at the Case Western Reserve University Genomics Core facility. Between 5 million and 13 million reads were generated per sample for drug time course experiments. […] EpiSCs, EpiSC OPCs, and in vivo OPCs were sequenced to depths of 51,271,458 reads, 61,072,460 reads, and 62,530,709 reads, respectively. […]
Reference genome files were retrieved from Illumina iGenomes. Reads were aligned to the mm9 genome using Tophat version 2.0.8 with default settings. Expression values of known RefSeq genes were calculated in units of fragments per kilobase per million reads (FPKM) using Cufflinks version 2.0.2. […] The collective list of changed genes for each drug was evaluated with Ingenuity Pathway Analysis (application build 261899, content version 18030641).

EpiSC-derived OPCs = test: Dose-response testing of drug hits (percent PLP1+ oligodendrocytes, cytotoxicity); assay type: cell-based, mouse; conditions: seven point dose response; seen only at the highest 6.7 μM dose
From the text: Dose-response testing of drug hits followed the same procedure with the following modifications to eliminate any artefacts in the primary screen: independently sourced drugs; a distinct batch of EpiSC-derived OPCs from a mouse of opposite sex; multi-dose testing; cytotoxicity analysis; an alternative marker of mature oligodendrocytes proteolipid protein 1 (PLP1, antibody clone AA3 provided by B. Trapp; 1:5,000); and an alternative high content assay endpoint parameter (percentage of oligodendrocytes differentiated instead of process intensity and length parameters). […]
For the 5 μM in vitro screen, stained plates were imaged on the Opera confocal imaging system (PerkinElmer) and a set of 24×10 fields were collected from each well, resulting in an average of 10,000 cells being scored per well. For the dose-response (6.7 μM, 5 μM, 3.3 μM, 1.7 μM, 666 nM, 500 nM, and 333 nM) in vitro assays, plates were imaged on the Operetta High Content Imaging and Analysis system (PerkinElmer) and a set of 14×20 fields captured from each well resulting in an average of 3,300 cells being scored per well. […] Each traced nucleus region was then expanded by 50% and cross-referenced with the mature myelin protein (MBP or PLP1) stain to identify oligodendrocyte nuclei, and from this the percentage of oligodendrocytes was calculated. […]

mouse OPCs [3] = test: Global phosphoproteomics of drug-treated OPCs; assay type: cell-based; conditions: 1 and 5 h after treatment
Description: Briefly, for each sample 30 million cells were lysed with 2% SDS solution with protease and phosphatase inhibitor (Thermo Fisher), and detergent was removed on 200 μl of the cell lysate using the FASP cleaning procedure. Each sample was digested by a two-step Lys-C/trypsin proteolytic cleavage and subjected to phospho-enrichment using a commercially available TiO2 enrichment spin tips (Thermo Fisher). LC-MS/MS analysis used a UPLC system (NanoAcquity, Waters) that was interfaced to an Orbitrap ProVelos Elite MS system (Thermo Fisher). Fold-change calculations were determined from peptide intensities for each drug versus DMSO at each time point. Phosphopeptides with greater than twofold change were imported into Ingenuity Pathway Analysis to elucidate signalling pathways perturbed with drug treatment.

| SMILES | phosphorylation of glucocorticoid receptor at Ser220 (glucocorticoid receptor) | naive T-cell differentiation (naive CD4+ T cells) | efficacy in reducing disease severity ([1]; daily i.p. day 13 to 29, clobetasol 2 mg/kg, miconazole 10 mg/kg, benztropine 10 mg/kg) | T cells within the spleen ([1]; day 29, 2 mg/kg) | modulation of gene expression (mouse OPCs [2]) | toxicity and decrease in PLP1 positive cells in dose response (EpiSC-derived OPCs) | pathways affected in phosphoproteomic analysis (mouse OPCs [3]) |
| --- | --- | --- | --- | --- | --- | --- | --- |
| C[C@H]1C[C@H]2[C@@H]3CCC4=CC(=O)C=C[C@]4(C)[C@@]3(F)[C@@H](O)C[C@]2(C)[C@@]1(O)C(=O)CCl [clobetasol] | increased the phosphorylation of glucocorticoid receptor at Ser220 | altered naïve T-cell differentiation | showed efficacy in reducing disease severity | severe reduction of T cells within the spleen | potently modulated genes downstream of multiple nuclear hormone receptors |  |  |
| Clc1ccc(COC(Cn2ccnc2)c2ccc(Cl)cc2Cl)c(Cl)c1 (stereo not shown) [miconazole] |  |  |  |  |  | Slight toxicity and a decrease in PLP1 positive cells | proteins in the mitogen-activated protein (MAP) kinase pathway were most strongly affected |
